Laboratory results taken from patent US6033913A, “Detection of ligand Interaction with polymeric material” (New York University, priority 1997, dated 2000).
pKd: −log10 of the molar value.

Experiments:
concanavalin A [1] = target: T1, concanavalin A (Canavalia ensiformis, UniProt P02866); assay: biochemical; type: binding; set-up: purchased Sigma, St. Louis, Mo; conditions: for tension change on removal of divalent cations: buffer 1 exchanged for buffer 2 (without MnCl2 and CaCl2, both removed together)
Excerpt: (§1) Referring again to FIGS. 4 and 5: With a sample strip S mounted between the tips of the arms 148, 168, and reference solution L flowing in the well 210, mechanochemical testing of the sample S is ready to begin. Testing itself consists of two stages. In the first (preparative) stage, the strip is stretched until a maximum spring constant of the strip is obtained, and then is allowed to relax under isometric conditions until a constant level of isometric tension is reached. Isometric condition herein means keeping a fixed distance between tips of the arms 148 and 146. In the second stage relaxed strip is brought into contact with ligand solution and ligand-induced changes of the isometric tension and spring constant are measured.
At the testing stage, ligand-induced changes in F and κ are measured after an exchange in the flow cell of reference solution for that containing ligands. These parameters by themselves can be used to detect binding. However, they also allow estimation of a practically important parameter: ligand-induced strain, εL=(L-L1)/L0, where L1 is the length of the sample in the ligand solution when no force is applied. This can also be calculated by the formula
Ligands are added at the moment indicated by arrows in FIGS. 12, 14, and 16.
A strip of concanavalin A, (Sigma, St. Louis, Mo.) was prepared as described in Example 1 for hexokinase, mounted on the arms 148, 146 and extended by 1.2% in buffer 1 (10 mM HEPES buffer, pH=7.5, containing 0.1 M NaCl and 0.1 mM MnCl2 and CaCl2 each). After relaxation solutions with 0.25 mM, 1.25 mM, 5 mM and 10 mM of methyl-α-D-mannopyranoside (MP) on the same buffer 1 were introduced into the well 210 at the moments indicated by arrows in the FIG. 14.

concanavalin A [2] = target: T1, concanavalin A; conditions: as compared to MP; Biochem. Biophys. Acta, 165:398 (1968); cited from earlier work
yeast hexokinase = assay: Mechanochemical test of yeast hexokinase film with glucose (isometric tension and compliance); type: binding
Excerpt: as §1
Spring constant is measured by applying small deformations to the strip with an amplitude AL much smaller than (L-L0). These deformations cause tension oscillations with amplitude of ΔF. […]
At the testing stage, ligand-induced changes in F and κ are measured after an exchange in the flow cell of reference solution for that containing ligands. […] This can also be calculated by the formula
A film of yeast hexokinase (Sigma Chemical Company, St. Louis, Mo.) was prepared. […] Changes in elasticity and isometric tension in the sample were measured at the moments indicated by arrows and changes in tension and in modulus resulted from such exchange of solutions were measured. […]

[Ca+2].[Cl-].[Cl-] [CaC12, CaCl2]
tension change on removal of divalent cations (concanavalin A [1]): considerable decrease of tension

O=C(O)CN(CCN(CC(=O)O)CC(=O)O)CC(=O)O [EDTA]
tension change on addition of EDTA (concanavalin A [1]): reduces tension still more | tension change on introduction of EDTA-free buffer 2 after EDTA (concanavalin A [1]): does not affect tension

CO[C@H]1O[C@H](CO)[C@@H](O)[C@H](O)[C@@H]1O [MP, methyl-α-D-mannopyranoside]
pKd (concanavalin A [1]): 3.52 | tension change on ligand addition without divalent cations (concanavalin A [1]; 10 mM MP in buffer 2): reversible drop of tension by ΔF2, similar to the effect, ΔF1, in buffer 1 | isometric tension change on ligand addition (concanavalin A [1]; buffer 1, 0.25, 1.25, 5 and 10 mM MP): reduce progressively the isometric tension | reversibility of MP-induced decrease in tension (concanavalin A [1]; return to buffer 1): completely reversible

[Cl][Mn][Cl] [MnCl2]
tension change on removal of divalent cations (concanavalin A [1]): considerable decrease of tension

OC[C@H]1OC(O)[C@H](O)[C@@H](O)[C@@H]1O (stereo partly drawn) [glucose]
ability of binding concanavalin A compared to MP (concanavalin A [2]): much lower ability of binding concanavalin A | tension change on introduction of glucose (concanavalin A [1]; 5 mM glucose): very small tension changes | inverse tension changes against inverse glucose concentration (yeast hexokinase; Lineweaver-Burk plot, FIG. 13): linear relationship | changes in isometric tension and compliance (yeast hexokinase; hexokinase film strip, varying glucose concentration, 10 mM HEPES, pH=7.5, 0.1 NaCl, extended 2.8%): large but reversible changes
